Where only a bound is given, the exact number is not on record here.

The source of these data is patent US7749491B2, “Compounds and methods to enhance rAAV transduction” (priority 2003, dated 2010).

Experiment [1] has as its system polarized human bronchial epithelial cells. The format is cell-based. The conditions noted are these: for rAAV transduction from the apical surface: apical infection, data not shown; for rAAV transduction from the basolateral surface with ubiquitin ligase inhibitors: both inhibitors combined, 2 mM pretreatment 60 minutes, then 0.2 mM. How it is done:
Primary culture of human bronchial epithelia and reagents utilized. Primary human airway epithelial cells were collected by enzymatic digestion of bronchial samples from lung transplants, as previously described (Kondo et al., 1991; Zabner et al., 1996). Isolated primary airway cells were seeded at a density of 5×10^5 cells/cm^2 onto collagen-coated Millicell-HA culture inserts (Millipore Corp., Bedford, Mass.). Primary cultures were grown at the air-liquid interface for more than 2 weeks, by which time differentiation into a mucociliary epithelium occurs. The culture medium, used to feed only the basolateral side of the cells, contained 49% DMEM, 49% Ham's F12 and 2% Ultraser G (BioSepra, Cedex, France). Dimethyl Sulphoxide (DMSO), camptothecin (Camp), etoposide (Etop), aphidicolin (Aphi), hydroxyurea (HU) and genistein (Geni) were purchased from Sigma (St. Louis, Mo.). Tripeptidyl aldehyde proteasome inhibitors N-Acetyl-L-Leucyl-L-Leucyl-Norleucine (LLnL) and benzyloxycarbonyl-L-leucyl-L-leucyl-L-leucinal (Z-LLL) were purchased from Calbiochem-Novabiochem Corporation (La Jolla, Calif.). Ubiquitin ligase (E3) inhibitors were obtained from Bachem Bioscience Inc. (King of Prussia, Pa.). Anti-AAV capsid monoclonal antibody (Anti-VP1, 2 and 3) was purchased from American Research Products (Belmont, Mass.) and anti-ubiquitin antibody was purchased from Santa Cruz Biotechnology Inc. (Santa Cruz, Calif.).
Transduction of polarized airway epithelial cells and primary human fibroblasts. rAAV infection of fully differentiated bronchial cells was performed as described in Duan et al. (1998). For infections from the apical surface of the airway cells, 5 μl rAAV was mixed with 50 μl of culture media and applied directly onto the apical compartment of Millicell inserts (MOI=10,000 particles/cell). During apical infection, the basolateral side of the Millicell was continuously bathed in culture media. Gene transfer to the basal side was performed by inverting Millicell inserts and applying viral vector to the bottom of the supporting filter membrane in a 50 μl volume for 2 hours. Subsequently, Millicell inserts were returned to the upright position, in the continued presence of the original viral inoculum plus an additional 450 μl of media. For both apical and basolateral infections, rAAV containing media was removed after 24 hours and replaced with either fresh culture media (for the basal side) or exposed to air (for the apical side). To test the effect of different agents on the efficiency of AAV transduction in polarized airway cells, 1 μl of each solution was mixed with AAV prior to infection of airway epithelia. Agents were usually presented during the 24 hours AAV infection period unless indicated otherwise. Most of the agents were dissolved in DMSO except for hydroxyurea (dissolved in phosphate buffered saline), H-Leu-Ala-OH (dissolved in 0.9% glacial acetic acid) and H-His-Ala-OH (dissolved in 50% methanol). The working concentrations of the agents were as follows: 0.1 μM camptothecin, 10 μM etoposide, 5 μg/ml aphidicolin, 40 mM hydroxyurea, 50 μM genistein, 40 μM LLnL and 4 μM Z-LLL. When the ubiquitin ligase (E3) inhibitors (H-Leu-Ala-OH and H-His-Ala-OH) were used, airway cells were pretreated with a combination of both inhibitors at a final concentration of 2 mM for 60 minutes prior to infection, followed by the continued presence of inhibitor (0.2 mM) during the entire 24 hours infection period from the basolateral surface. Studies involving EGTA treatment were performed by transiently treating the apical membrane of polarized airway epithelia with 3 mM EGTA in water for 10 minutes (Duan et al., 1998). Following hypotonic EGTA treatment, cultures were washed twice with culture medium and infected with rAAV in the presence or absence of 40 μM LLnL. Human primary fibroblast cells (P4) were maintained in 10% fetal bovine serum (FBS), 1% penicillin and streptomycin, and 89% DMEM. […]

The next experiment concerns HeLa cells. The experiment is described as follows: AAV2 FLAG-Luc transduction of HeLa cells (luciferase screen of agents). It counts as cell-based. The conditions noted are these: for increase of transduction efficiency: MOI of 100, 2 hours infection, at the doses tested; for relative potency of anthracyclines: 0.6, 3 and 6 μg/mL. The text has this: A. To screen for agents that enhance rAAV transduction, any number of cells can be used. A range of concentrations of the agent to be tested can be determined based on, for instance desirable profiles of the agent, desirable toxicity profiles of the agent and/or concentration of the agents employed in vivo. The usefulness of the cell type chosen for the screen can be confirmed by testing compounds, e.g., proteosome inhibitors described in Example 1 such as LLnL and ZLL which are known to increase rAAV transduction. For example, a AAV2 FLAG-Luc vector was employed to transduce HeLa, ferret fibroblasts, IB3 and Huh (liver) cells in the presence or absence of the proteosome inhibitor MG132. MG132 was confirmed to enhance AAV transduction in all cell types tested: HeLa cell transduction was enhanced about 500-fold at 80 μM, and 200-fold at 40 μM, MG132; ferret fibroblast cell transduction was enhanced about 200-fold at 20 μM, and 17-fold at 4 μM, MG132; IB3-1 cell transduction was enhanced about 30 to 70-fold at 20 to 80 μM MG132; and Huh-7 cell transduction was enhanced about 15-fold at 20 to 80 μM MG132. There was no difference in rAAV transduction efficiency in HeLa cells when either DMSO or ETOH was used as a vehicle for MG132. B. HeLa cells were selected to screen for additional agents that enhance rAAV transduction, although any cell strain or line; or primary cells, may be employed. […] The range of concentrations of the agents to be tested were selected based on solubility profiles, toxicity profiles and/or concentrations previously employed in vivo.
HeLa cells were infected for 2 hours with an MOI of 100 rAAV in the presence of agents, e.g., ritonavir (Norvir) (1, 10 and 100 μM), cyclosporin A (2.5, 25 and 250 μg/ml), epoxomicin (1, 10 and 50 μM), alcacinomycin A (5, 50 or 500 μM), chymostatin (1, 10 and 100 μM), bestatin (1, 10 and 100 μM), doxorubicin (adriamycin) (0.1, 1 and 10 μM), camptothecin (camptosar) (1, 10 and 100 μM), eicosapentanoic acid (1, 10 and 100 μM), tannic acid (2, 20, 200 and 2000 μM), simvastatin, prodrug (2, 20 and 200 μM), cisplatin (0.2, 2 and 20 μg/mL), and chloroquine (4, 40 and 400 μM). Forty-eight hours after infection, cells were harvested for analysis. rAAV transduction was measured by removing the media from the cell cultures, adding 100 μL reporter lysis buffer (RLB) and freezing. The supernatant was thawed and transferred to microfuge tubes, freeze thawed an additional 2 times, clarified by centrifugation for 10 minutes and then analyzed for reporter gene expression on the luminometer. Protein was determined by Bradford analysis and results were expressed as relative light units per mg protein (RLU/mg).
Based on results with doxorubicin, a small number of FDA approved anthracyclines were tested for their relative in vitro and in vivo activities on AAV transduction. HeLa cells were infected with 100 ppc AAV2FLAG-Luc for 2 hours in the presence of different anthracyclines, e.g., doxorubicin, daunarubicin (Cerubidine), epirubicin (Ellence™), and idarubicin (Idamycin®), and cells harvested 48 hours later. The anthracyclines were pharmaceutical grade, and prepared according to the manufacturer's instructions. Prior to use, the agents were diluted in sterile water to an equal mass, e.g., 0.6 μg/mL, 3 μg/mL and 6 μg/mL. For example, 3 μg/mL idamycin increased luciferase expression by over 5000-fold while doxorubin increased luciferase expression by 58-fold. Generally, the potency was as follows: idarubicin>daunarubicin>epirubicin>doxorubicin.

On to `CC[C@@]1(O)C(=O)OCc2c1cc1n(c2=O)Cc2cc3ccccc3nc2-1` [camptothecin], for which the “rAAV transduction from the apical surface” value in experiment [1] is on record as “none of these agents facilitated rAAV transduction from the apical surface”. For the same compound, the “increase of transduction efficiency” value with HeLa cells (harvested 48 hours) was 15 fold.
`N.N.[Cl][Pt][Cl]` [cisplatin]: the “increase of transduction efficiency” value with HeLa cells (harvested 48 hours) is 16 fold.
As to `COc1cccc2c1C(=O)c1c(O)c3c(c(O)c1C2=O)C[C@@](O)(C(C)=O)C[C@@H]3O[C@H]1C[C@H](N)[C@H](O)[C@H](C)O1` [daunarubicin], the “relative potency of anthracyclines” value with HeLa cells was “idarubicin>daunarubicin>epirubicin>doxorubicin”.
For the compound `CC[C@H](C)[C@H](NC(=O)[C@H]([C@@H](C)CC)N(C)C(C)=O)C(=O)N[C@H](C(=O)N[C@@H](CC(C)C)C(=O)[C@@]1(C)CO1)[C@@H](C)O` [epoxomicin], in the experiment on HeLa cells (harvested 48 hours), the “increase of transduction efficiency” value is recorded as at most 120 fold.
For the compound `COc1cc([C@@H]2c3cc4c(cc3[C@@H](O[C@@H]3O[C@@H]5CO[C@@H](C)O[C@H]5[C@H](O)[C@H]3O)[C@H]3COC(=O)[C@H]23)OCO4)cc(OC)c1O` [etoposide], the “rAAV transduction from the apical surface” value in experiment [1] is “none of these agents facilitated rAAV transduction from the apical surface”.
Turning to `O=c1c(-c2ccc(O)cc2)coc2cc(O)cc(O)c12` [genistein], in experiment [1], the “rAAV transduction from the apical surface” value is given as “none of these agents facilitated rAAV transduction from the apical surface”.
For the compound `CC(=O)[C@]1(O)Cc2c(O)c3c(c(O)c2[C@@H](O[C@H]2C[C@H](N)[C@H](O)[C@H](C)O2)C1)C(=O)c1ccccc1C3=O` [idamycin, idarubicin], in the experiment on HeLa cells (3 μg/mL, 100 ppc AAV2FLAG-Luc 2 hours, harvested 48 hours), the “increase of luciferase expression” value is given as “over 5000 fold”. Moreover, in the experiment on HeLa cells, the “relative potency of anthracyclines” value is reported as “idarubicin>daunarubicin>epirubicin>doxorubicin”.
In the case of `CC[C@H](C)C(=O)O[C@H]1C[C@@H](C)C=C2C=C[C@H](C)[C@H](CC[C@@H]3C[C@@H](O)CC(=O)O3)[C@H]21` [lovastatin], the “outcome in cell line screening” value in the experiment with HeLa cells (HeLa screen) was “negative results”.
With `CCC(C)(C)C(=O)O[C@H]1C[C@@H](C)C=C2C=C[C@H](C)[C@H](CC[C@@H]3C[C@@H](O)CC(=O)O3)[C@H]21` [simvastatin], the “increase of transduction efficiency” value in the experiment on HeLa cells (harvested 48 hours) came out at 4 fold.
Same read-out and setting: as for `O=C(OC[C@H]1O[C@@H](OC(=O)c2cc(O)c(O)c(OC(=O)c3cc(O)c(O)c(O)c3)c2)[C@H](OC(=O)c2cc(O)c(O)c(OC(=O)c3cc(O)c(O)c(O)c3)c2)[C@@H](OC(=O)c2cc(O)c(O)c(OC(=O)c3cc(O)c(O)c(O)c3)c2)[C@@H]1OC(=O)c1cc(O)c(O)c(OC(=O)c2cc(O)c(O)c(O)c2)c1)c1cc(O)c(O)c(OC(=O)c2cc(O)c(O)c(O)c2)c1` [tannic acid], the figure is 17 fold.
H-His-Ala-OH: the “rAAV transduction from the basolateral surface with ubiquitin ligase inhibitors” value in experiment [1] was “enhanced rAAV transduction from the basolateral surface”.
The same measure, in the same setting: the result for H-Leu-Ala-OH reads “enhanced rAAV transduction from the basolateral surface”.
